# Measurements from patent publication US8822698B2, “Aminoacid derivatives, their process of preparation and their therapeutical uses as inhibitors of oncogenic signals by the Met family” (Universite D'Aix-Marseille, priority 2009, dated 2014).
# Legend:
# [1] = system: Met-triggered cell scattering, MDCK cells; assay: HGF-induced MDCK cell scattering assay; assay type: cell-based; details: Canis lupus familiaris; MDCK cells, 20 ng/ml HGF; read-out: IC50 scattering inhibition
# Experimental: MDCK cells were grown in Dulbecco's modified Eagle's medium (DMEM) (Gibco BRL) containing 4 mM L-glutamine and supplemented with 2% (v/v) foetal bovine serum (Gibco BRL), 100 U/mL penicillin, and 100 μg/mL streptomycin. Cells were plated at a density of 1000 cells per well in 24-well microplates and allowed to settle overnight at 37° C. in a humidified atmosphere of 5% CO2 prior to treatments. MCF10A human breast cells, MDA-MB231 human breast cancer cells, GTL-16 human gastric carcinoma cells, HepG2 human hepatocellular carcinoma cells, U-87 human glioblastoma-astrocytoma cells and LLC Lewis lung carcinoma cells were grown in RPMI medium (Gibco BRL) containing 4 mM L-glutamine and supplemented with 2% (v/v) foetal bovine serum (Gibco BRL), 100 U/mL penicillin, and 100 μg/mL streptomycin and kept at 37° C. in a humidified atmosphere of 5% CO2.
# (§1) For scattering assays, MDCK cells were pre-incubated with compounds for 2 hours at 0.1-100 μM concentrations at 37° C. in a humidified atmosphere of 5% CO2, followed by 24 hr stimulation with 20 ng/ml HGF (R&D Systems), as previously described (Patane et al., Biochem Biophys Res Commun 375, 184-189, 2008). The cells were further incubated at 37° C. in an atmosphere of 5% CO2 for 24-48 hours, washed with phosphate-buffered saline (PBS; Gibco BRL), and fixed in PFA (Sigma). The quantification of scattering response was performed by counting the number of cells with scattered morphology in 30 independent colonies. The […] corresponds to the concentration of compounds leading to a 50% inhibition of Met-triggered cell scattering. Active compounds were assayed to impair scattering response also on human breast MCF10A cells following the same procedure. For survival assays, GTL-16, HepG2 and U-87 cells were cultured in serum-free media for 24 hours prior to compound addition for 48 hours. Viability was assessed with the Cell Titer Glo Luminescent Assay (Promega). For in vitro tumorigenesis, soft agar growth assays were preformed using GTL-16, HepG2, and U-87 cells, as previously described (Patane et al., Cancer Res 66, 4750-4757, 2006).
# Compounds were first submitted to a biological screening of cell motility, namely scattering response. MDCK epithelial cells acquire a “scattered phenotype” following stimulation by the Met ligand, HGF (Chan et al., J Biomol Screen. 13, 847-854, 2008; Corso et al., Trends Mol Med 11, 284-292, 2005; Patane et al., Biochem Biophys Res Commun 375, 184-189, 2008), allowing direct evaluation of compounds on Met functions. The Met inhibitor […] was used as control in all assays (Schiering et al., Proc Natl Acad Sci USA 100, 12654-12659, 2003).
# MDCK cells = assay: Toxicity observed in the cell scattering screening; assay type: cell-based
# Experimental: as §1
# Compounds of examples 1 (XIII), 2 (XIV), 4 (XVI), 5 (XVII), and 6 (XVIII) in particular elicit inhibitory activity on Met-triggered cell scattering. […] The SU11274 (Met inhibitor; Sugen) was used as reference compound. […] These findings were further supported by analysing the inhibitory activity of compounds on breast cells. […] Altogether, these studies identify a new class of compounds of general formula (I), which are able to interfere with Met-triggered cell scattering.
# [2] = system: Met phosphorylation, HepG2 cells; assay: Met phosphorylation upon HGF stimulation in HepG2 cells; assay type: cell-based, human
# Experimental: After starvation, cells were pretreated with inhibitors, then stimulated with HGF, and total extracts were analyzed as described (Maina et al., Mol Cell 7, 1293-1306, 2001). Antibodies used were anti-tubulin (Sigma), anti-phospho Y1234-1235-Met, anti-Akt, anti-phospho-Akt, anti-phospho-Gab1, anti phosphor-ErbBs, anti-phospho-PDGFR, anti-PDGFRs, anti-ERKs (Cell Signaling), anti-ErbBs, anti-Met (Santa Cruz).
# Activation of Met by HGF can be biochemically evaluated by following its phosphorylation levels and activation of downstream targets. We started to biochemically characterise the inhibitory properties of identified compounds by following Met phosphorylation and its downstream targets in HepG2 cells. […] These findings were further supported using other cell lines, such as MDA-MB231 human breast cancer cells (FIG. 2).
# GTL-16 cells = assay: In vivo tumorigenesis, GTL-16 cells injected intra-peritoneally in nude mice
# Experimental: Xenografts of GTL-16 cells were established by intraperitoneal (i.p.) or subcutaneously (into the flank/leg region) injection of cells (10^6) in nude mice (S/SOPF SWISS NU/NU; Charles River). Mice were then treated with the compound of example 4 (i.p. 30 mg kg-1) or vehicle every two days (GTL-16 cell intra-peritoneally injected at d=0, treatment started at d=1) or every day (GTL-16 cell intra-peritoneally injected at d=0, treatment started at d=7; GTL-16 cell subcutaneously injected at d=0, treatment started at d=1). Treatments were performed either one day or seven days after cancer cell injection. Mice were then sacrificed, and tumor nodule numbers present in the peritoneal cavity, the measure of their diameter and their total weight was evaluated. Three independent tumorigenesis assays were performed (8 mice per group were used).
# We evaluated the ability of compounds of general formula to impair tumour growth in vivo using nude mice injected intra-peritoneally with GTL-16 cells. […] For example, when compounds were administered one day after intraperitoneally injection of GTL-16 cells, the mean numbers of nodules were the following: a) mice trated with vehicle: <1 mm: 3; 1-2 mm: 9.3; 2-5 mm: 11; >5 mm: 3.5. b) mice treated with the compound of example 4: <1 mm: 0.3; 1-2 mm: 1.3; 2-5 mm: 1; >5 mm: 0.8 (FIG. 3). […] Moreover, tumour growth of GTL-16 cells subcutaneously injected was reduced by approximately 35% in mice treated with compounds (data not shown). Taken together, these findings provide evidence that the identified new scaffold interferes with tumour growth in vivo.
# [3] = i.p. 30 mg kg-1, treatment one day after i.p. injection of GTL-16 cells
# [4] = nude mice injected i.p. with GTL-16 cells
structure (smiles),measurement,setting,value
"O=C(Cc1cc(C(F)(F)F)cc(C(F)(F)F)c1)N[C@@H](Cc1ccccc1)C(=O)Nc1ccc(-c2cn3c(n2)sc2ccccc23)cc1 [Example 4, (S)-2-(3,5-bis(trifluoromethyl)phenylacetamido)-3-phenyl-N-[4-(imidazo[2,1-b]benzothiazol-2-yl)phenyl]propanamide]",IC50,[1],171 nM
same,Concentration at which toxicity was or was not observed,MDCK cells,100 µM
same,Toxicity,"MDCK cells; Table 1, scattering screening",>50 µM
same,Met phosphorylation,[2],significantly reduced
same,mean number of nodules 1-2 mm,GTL-16 cells; [3],1.3
same,mean number of nodules 2-5 mm,GTL-16 cells; [3],1
same,mean number of nodules <1 mm,GTL-16 cells; [3],0.3
same,mean number of nodules >5 mm,GTL-16 cells; [3],0.8
same,number of tumours,GTL-16 cells; [4],drastically reduced
same,total weight of tumours,GTL-16 cells; [4],drastically reduced
